Measurements reported in patent US20140377340A1, “HLA-DR BINDING PEPTIDES AND THEIR USES” (priority 2007, published 2014).

Tests used:
[1] = biological target: T1, purified HLA DRB1*0405 (Homo sapiens, UniProt P01903+P01911, A100R/A169T/D86S/F76Y/I96L/K127E/L162R/M171V/N62H/P40V/Q125Y/R42H/S133A/S149N/S66Y/V115G/V209L/W38E); assay: HLA-DR radioligand binding inhibition assay, DRB1*0405; settings: IC50 nM purified HLA DRB1 *0405, purified HLA DRB1*0405
T1 construct: purified from EBV transformed homozygous cell lines or single MHC allele transfected 721.221, C1R, or fibroblast lines; made in house
Procedure, shortened: (§1)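 The probe, 1-10 nM radiolabeled peptide, was incubated with 1 μM to 1 nM HLA-DR for 2 days in the presence of protease inhibitors.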

[2] = biological target: T2, purified HLA DRB1*0101 (Homo sapiens, UniProt P01903+P01911, A100R/D57E/F55L/F60I/F76Y/I96L/L162R/M171V/P40L/Q125E/R42F/V115G/Y59C); assay: HLA-DR radioligand binding inhibition assay, DRB1*0101; settings: IC50 nM purified HLA DRB1 *0101, purified HLA DRB1*0101
T2 construct: purified from EBV transformed homozygous cell lines or single MHC allele transfected 721.221, C1R, or fibroblast lines; made in house
Procedure, shortened: as §1

[3] = biological target: T3, purified HLA DRB1*1501 (Homo sapiens, UniProt P01903+P01911); assay: HLA-DR radioligand binding inhibition assay, DRB1*1501
T3 construct: purified from EBV transformed homozygous cell lines or single MHC allele transfected 721.221, C1R, or fibroblast lines; made in house
Procedure, shortened: as §1

[4] = biological target: T4, purified HLA DRB1*0301 (Homo sapiens, UniProt P01903+P01911, A100K/A102G/A103R/A169T/F55Y/I96L/K41T/L162R/M171V/P40S/Q125H/Q178H/Q39Y/R42S/S66N/T106N/T262R/W38E/Y61H); assay: HLA-DR radioligand binding inhibition assay, DRB1*0301; settings: IC50 nM purified HLA DRB1 *0301, purified HLA DRB1*0301
T4 construct: purified from EBV transformed homozygous cell lines or single MHC allele transfected 721.221, C1R, or fibroblast lines; made in house
Method: Instead, wells of an opaque white 96-well Optiplate (Packard) are coated with 3 μg (100 μl@ 30 μg/ml) of HLA-specific antibody (Ab) that “capture” complexes of radiolabeled MHC and unlabeled peptide transferred from the molecular binding assay plate in 100 μl of 0.05% NP40/PBS. After a 3-hour incubation period, the supernatant is decanted and scintillation fluid (Microscint 20) added. Captured complexes are then measured on a microplate scintillation and luminescence counter (TopCount NXTTM; Packard).
HLA-DR purification. Fifteen distinct HLA-DR molecules were used in quantitative assays to measure the binding of peptides to solubilized HLA-DR molecules. […] Briefly, columns of inactivated Sepharose CL4B and Protein A Sepharose were used as pre-columns. HLA-DR molecules were captured by passage of lysates over LB3.1 monoclonal antibody (anti-HLA-DRA) columns. Antibody columns were washed with 10 mM Tris-HCL, pH8.0 with 1% (v/v) NP-40, followed by PBS containing 0.4% (w/v) n-octylglucoside.
Briefly, 1-10 nM of radiolabeled peptide was co-incubated for 2 days at either room temperature or 37° C. with 1 μM to 1 nM purified HLA-DR molecules in the presence of a cocktail of protease inhibitors. Assays were performed at various pH conditions, ranging from pH 4 to pH 7. […] After incubation, the percentage of HLA-DR-bound radioactivity is determined by capturing HLA-DR/peptide complexes on Optiplates (Packard Instruments, Meriden, Conn.) coated with the LB3.1 antibody and determining bound counts per minute using the TopCount microscintillation counter (Packard Instruments).

[5] = biological target: T5, purified HLA DRB4*0101 (Homo sapiens, UniProt P01903+P13762, G164S); assay: HLA-DR radioligand binding inhibition assay, DRB4*0101; settings: IC50 nM purified HLA DRB4 *0101, purified HLA DRB4*0101
T5 construct: purified from EBV transformed homozygous cell lines or single MHC allele transfected 721.221, C1R, or fibroblast lines; made in house
Procedure, shortened: as §1

[6] = biological target: T6, purified HLA DRB1*1302 (Homo sapiens, UniProt P01903+P01911, A100E/A169T/K41T/L162R/M171V/P40S/Q125H/Q178H/Q39Y/Q99D/R42S/S66N/T262R/V115G/W38E/Y61H); assay: HLA-DR radioligand binding inhibition assay, DRB1*1302
T6 construct: purified from EBV transformed homozygous cell lines or single MHC allele transfected 721.221, C1R, or fibroblast lines; made in house
Procedure, shortened: as §1

[7] = biological target: T7, purified HLA DRB1*0401 (Homo sapiens, UniProt P01903+P01911, A100K/A169T/F76Y/I96L/K127E/L162R/M171V/N62H/P40V/Q125Y/R42H/S133A/S149N/S66Y/V115G/V209L/W38E); assay: HLA-DR radioligand binding inhibition assay, DRB1*0401; settings: IC50 nM purified HLA DRB1 *0401, purified HLA DRB1*0401
T7 construct: purified from EBV transformed homozygous cell lines or single MHC allele transfected 721.221, C1R, or fibroblast lines; made in house
Procedure, shortened: as §1

[8] = biological target: T8, purified HLA DRB1*1101 (Homo sapiens, UniProt P01903+P01911, A100R/A169T/A87E/I96F/K41T/L162R/M171V/P40S/Q125H/Q178H/Q39Y/Q99D/R42S/S66Y/T262R/V115G/W38E); assay: HLA-DR radioligand binding inhibition assay, DRB1*1101; settings: IC50 nM purified HLA DRB1 *1101, purified HLA DRB1*1101
T8 construct: purified from EBV transformed homozygous cell lines or single MHC allele transfected 721.221, C1R, or fibroblast lines; made in house
T8 sequence (P01903 26-254, other chains not shown): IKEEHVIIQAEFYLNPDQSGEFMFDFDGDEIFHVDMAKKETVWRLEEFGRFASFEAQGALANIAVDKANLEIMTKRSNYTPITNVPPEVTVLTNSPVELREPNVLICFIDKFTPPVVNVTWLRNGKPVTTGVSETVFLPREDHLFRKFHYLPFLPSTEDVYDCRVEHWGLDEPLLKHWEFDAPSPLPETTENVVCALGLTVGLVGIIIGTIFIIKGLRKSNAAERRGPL
Procedure, shortened: as §1

[9] = biological target: T9, purified HLA DRB1*0701 (Homo sapiens, UniProt P01903+P01911, A100R/A102G/A103Q/D57E/D86V/E43K/F76Y/K127E/L162R/M171V/P40G/Q125H/Q99D/R33Q/R42Y/R54Q/S133A/S66F/T210M/V115G/Y107V/Y59L/Y89S); assay: HLA-DR radioligand binding inhibition assay, DRB1*0701; settings: IC50 nM purified HLA DRB1 *0701, purified HLA DRB1*0701
T9 construct: purified from EBV transformed homozygous cell lines or single MHC allele transfected 721.221, C1R, or fibroblast lines; made in house
Procedure, shortened: as §1

[10] = biological target: T10, purified HLA DRB5*0101 (Homo sapiens, UniProt P01903+Q30154); assay: HLA-DR radioligand binding inhibition assay, DRB5*0101; settings: IC50 nM purified HLA DRB5 *0101, purified HLA DRB5*0101
T10 construct: purified from EBV transformed homozygous cell lines or single MHC allele transfected 721.221, C1R, or fibroblast lines; made in house
Procedure, shortened: as §1

[11] = tested on: 15 different HLA-DR molecules; assay: HLA-DR binding assays, panel of 15 different HLA-DR molecules (breadth of binding); settings: number of the 15 HLA-DR molecules bound (binders: 1000 nM or better)
[12] = tested on: short term T cell lines from breast or ovarian cancer patients; assay: IFN-γ ELISpot analysis of short term T cell lines (peptide versus protein fragment; natural processing); assay type: cell-based, human; settings: T cell lines respond to culture peptide and to protein fragment; FIGS. 5 and 6
Source text: IFN-γ ELISpot analysis of short term T cell lines generated against HER-2/neu peptides, p53 (Panel A), p83 (Panel B), p88 (Panel C) and p885 (Panel D). […] Each bar is the mean (s.e.m.) of three replicates.
FIG. 6 is identical to FIG. 5 except that the results were obtained using IGFBP-2 derived helper epitopes.

| SMILES | IC50 [1] | IC50 [2] | IC50 [3] | IC50 [4] | IC50 [5] | IC50 [6] | IC50 [7] | IC50 [8] | IC50 [9] | IC50 [10] | Total XRN [11] | naturally processed and presented antigen [12] |
| --- | --- | --- | --- | --- | --- | --- | --- | --- | --- | --- | --- | --- |
| CSCC[C@H](NC(=O)[C@H](CC(N)=O)NC(=O)[C@H](CCC(N)=O)NC(=O)[C@H](CCC(N)=O)NC(=O)[C@H](C)NC(=O)[C@H](CCC(N)=O)NC(=O)[C@H](CCCNC(=N)N)NC(=O)[C@H](CC(C)C)NC(=O)[C@H](CO)NC(=O)[C@H](CO)NC(=O)[C@H](CCC(=O)O)NC(=O)[C@H](CC(C)C)NC(=O)[C@H](CC(C)C)NC(=O)[C@H](C)NC(=O)[C@@H](N)CCC(=O)O)C(=O)O [Peptide 9019.0014] | 12900 nM | 8210 nM | 8180 nM | 151 nM | 4030 nM | 4750 nM | 605 nM | 756 nM | > 20000 nM | > 20000 nM |  |  |
| CC[C@H](C)[C@H](NC(=O)[C@H](CC(C)C)NC(=O)[C@@H](NC(=O)[C@@H](N)Cc1ccc(O)cc1)C(C)C)C(=O)N[C@@H](C)C(=O)N[C@@H](Cc1c[nH]cn1)C(=O)N[C@@H](CC(N)=O)C(=O)N[C@@H](CCC(N)=O)C(=O)N[C@H](C(=O)N[C@@H](CCCNC(=N)N)C(=O)N[C@@H](CCC(N)=O)C(=O)N[C@H](C(=O)N1CCC[C@H]1C(=O)N[C@@H](CC(C)C)C(=O)N[C@@H](CCC(N)=O)C(=O)O)C(C)C)C(C)C [Peptide 9019.0033] |  |  |  |  |  |  |  |  |  |  | 14 | naturally processed and presented antigens |
| CC[C@H](C)[C@H](NC(=O)[C@H](CCCNC(=N)N)NC(=O)[C@H](CC(C)C)NC(=O)[C@H](CCCNC(=N)N)NC(=O)[C@H](CCC(N)=O)NC(=O)[C@H](CC(C)C)NC(=O)[C@@H]1CCCN1C(=O)[C@@H](NC(=O)[C@H](CCC(N)=O)NC(=O)[C@H](CCCNC(=N)N)NC(=O)[C@@H](NC(=O)[C@H](CCC(N)=O)NC(=O)[C@H](CC(N)=O)NC(=O)[C@@H](N)Cc1c[nH]cn1)C(C)C)C(C)C)C(=O)N[C@H](C(=O)O)C(C)C [Peptide 9019.0034] |  |  |  |  |  |  |  |  |  |  | 12 | naturally processed and presented antigens |
